Measured values taken from patent publication US12226424B2, “Target protein degradation compounds, their anti-tumor use, their intermediates and use of intermediates” (ShanghaiTech University, priority 2018, dated 2025).
Read-outs that look alike come from different tables or passages of the source.

Tested on: CDK4/6 protein
Experiment: Western-blot determination of CDK4/6 protein degradation (DC50) in T-47D cells
Assay type: cell-based, human
[1] = 24 h drug treatment, read-out: DC50(nM)/T-47D cell line

SMILES | DC50 [1] [nM] | DC50 (read-out: DC50(nM)/T-47D cell line, 24 h drug treatment) [nM]
CN(C)C(=O)c1cc2cnc(Nc3ccc(N4CCN(C(=O)COCCOCCSc5cccc6c5CN(C5CCC(=O)NC5=O)C6=O)CC4)cn3)nc2n1C1CCCC1 (centres unmarked) [SIAIS219107, 7-cyclopentyl-2-((5-(4-(2-(2-(2-((2-(2,6-dioxopiperidin-3-yl)-1-oxoisoindolin-4-yl)thio)ethoxy)ethoxy)acetyl)piperazin-1-yl)pyridin-2-yl)amino)-N,N-dimethyl-7H-pyrrolo[2,3-d]pyrimidine-6-carboxamide] | 0.04 to 0.2 | 
CN(C)C(=O)c1cc2cnc(Nc3ccc(N4CCN(C(=O)COCCOCCSc5cccc6c5C(=O)N(C5CCC(=O)NC5=O)C6=O)CC4)cn3)nc2n1C1CCCC1 (centres unmarked) [SIAIS219112, 7-cyclopentyl-2-((5-(4-(2-(2-(2-((2-(2,6-dioxopiperidin-3-yl)-1,3-dioxoisoindolin-4-yl)thio)ethoxy)ethoxy)acetyl)piperazin-1-yl)pyridin-2-yl)amino)-N,N-dimethyl-7H-pyrrolo[2,3-d]pyrimidine-6-carboxamide] | 0.04 to 0.2 | 
CN(C)C(=O)c1cc2cnc(Nc3ccc(N4CCN(C(=O)CSc5cccc6c5C(=O)N(C5CCC(=O)NC5=O)C6=O)CC4)cn3)nc2n1C1CCCC1 (centres unmarked) [SIAIS219100, 7-cyclopentyl-2-((5-(4-(2-((2-(2,6-dioxopiperidin-3-yl)-1,3-dioxoisoindolin-4-yl)thio)acetyl)piperazin-1-yl)pyridin-2-yl)amino)-N,N-dimethyl-7H-pyrrolo[2,3-d]pyrimidine-6-carboxamide] | < 0.04 | 
Cc1nc2c(F)cc(-c3nc(Nc4ccc(CN5CCN(C(=O)CCCCSc6cccc7c6CN(C6CCC(=O)NC6=O)C7=O)CC5)cn4)ncc3F)cc2n1C(C)C (centres unmarked) [SIAIS262167, 3-(4-((5-(4-((6-((5-fluoro-4-(4-fluoro-1-isopropyl-2-methyl-1H-benzo[d]imidazol-6-yl)pyrimidin-2-yl)amino)pyridin-3-yl)methyl)piperazin-1-yl)-5-oxopentyl)thio)-1-oxoisoindolin-2-yl)piperidine-2,6-dione] | 0.5 to 5 | 
CN(C)C(=O)c1cc2cnc(Nc3ccc(N4CCN(C(=O)COCCOCCOCCSc5cccc6c5C(=O)N(C5CCC(=O)NC5=O)C6=O)CC4)cn3)nc2n1C1CCCC1 (centres unmarked) [SIAIS219113, 7-cyclopentyl-2-((5-(4-(2-(2-(2-(2-((2-(2,6-dioxopiperidin-3-yl)-1,3-dioxoisoindolin-4-yl)thio)ethoxy)ethoxy)ethoxy)acetyl)piperazin-1-yl)pyridin-2-yl)amino)-N,N-dimethyl-7H-pyrrolo[2,3-d]pyrimidine-6-carboxamide] | < 1 | 
CC(=O)c1c(C)c2cnc(Nc3ccc(N4CCN(C(=O)CCCCCSc5cccc6c5C(=O)N(C5CCC(=O)NC5=O)C6=O)CC4)cn3)nc2n(C2CCCC2)c1=O (centres unmarked) [SIAIS184089, 4-((6-(4-(6-((6-acetyl-8-cyclopentyl-5-methyl-7-oxo-7,8-dihydropyrido[2,3-d]pyrimidin-2-yl)amino)pyridin-3-yl)piperazin-1-yl)-6-oxohexyl)thio)-2-(2,6-dioxopiperidin-3-yl)isoindoline-1,3-dione] | 1 to 10 | 
CC(=O)c1c(C)c2cnc(Nc3ccc(N4CCN(C(=O)COCCOCCOCCOCCOCCSc5cccc6c5C(=O)N(C5CCC(=O)NC5=O)C6=O)CC4)cn3)nc2n(C2CCCC2)c1=O (centres unmarked) [SIAIS219062, 4-((17-(4-(6-((6-acetyl-8-cyclopentyl-5-methyl-7-oxo-7,8-dihydropyrido[2,3-d]pyrimidin-2-yl)amino)pyridin-3-yl)piperazin-1-yl)-17-oxo-3,6,9,12,15-pentaoxaheptadecyl)thio)-2-(2,6-dioxopiperidin-3-yl)isoindoline-1,3-dione] | 1 to 10 | 
CN(C)C(=O)c1cc2cnc(Nc3ccc(N4CCN(C(=O)COCCOCCOCCSc5cccc6c5CN(C5CCC(=O)NC5=O)C6=O)CC4)cn3)nc2n1C1CCCC1 (centres unmarked) [SIAIS219108, 7-cyclopentyl-2-((5-(4-(2-(2-(2-(2-((2-(2,6-dioxopiperidin-3-yl)-1-oxoisoindolin-4-yl)thio)ethoxy)ethoxy)ethoxy)acetyl)piperazin-1-yl)pyridin-2-yl)amino)-N,N-dimethyl-7H-pyrrolo[2,3-d]pyrimidine-6-carboxamide] | 0.04 to 0.2 | 
CN(C)C(=O)c1cc2cnc(Nc3ccc(N4CCN(C(=O)CCSc5cccc6c5CN(C5CCC(=O)NC5=O)C6=O)CC4)cn3)nc2n1C1CCCC1 (centres unmarked) [SIAIS219087, 7-cyclopentyl-2-((5-(4-(3-((2-(2,6-dioxopiperidin-3-yl)-1-oxoisoindolin-4-yl)thio)propanoyl)piperazin-1-yl)pyridin-2-yl)amino)-N,N-dimethyl-7H-pyrrolo[2,3-d]pyrimidine-6-carboxamide] | < 1 | 
CN(C)C(=O)c1cc2cnc(Nc3ccc(N4CCN(C(=O)CCCSc5cccc6c5CN(C5CCC(=O)NC5=O)C6=O)CC4)cn3)nc2n1C1CCCC1 (centres unmarked) [SIAIS219088, 7-cyclopentyl-2-((5-(4-(4-((2-(2,6-dioxopiperidin-3-yl)-1-oxoisoindolin-4-yl)thio)butanoyl)piperazin-1-yl)pyridin-2-yl)amino)-N,N-dimethyl-7H-pyrrolo[2,3-d]pyrimidine-6-carboxamide] | 1 to 10 | 
CN(C)C(=O)c1cc2cnc(Nc3ccc(N4CCN(C(=O)CCCCCSc5cccc6c5CN(C5CCC(=O)NC5=O)C6=O)CC4)cn3)nc2n1C1CCCC1 (centres unmarked) [SIAIS219090, 7-cyclopentyl-2-((5-(4-(6-((2-(2,6-dioxopiperidin-3-yl)-1-oxoisoindolin-4-yl)thio)hexanoyl)piperazin-1-yl)pyridin-2-yl)amino)-N,N-dimethyl-7H-pyrrolo[2,3-d]pyrimidine-6-carboxamide] | 0.2 to 1 | 
Cc1nc2c(F)cc(-c3nc(Nc4ccc(CN5CCN(C(=O)COCCSc6cccc7c6CN(C6CCC(=O)NC6=O)C7=O)CC5)cn4)ncc3F)cc2n1C(C)C (centres unmarked) [SIAIS262171, 3-(4-((2-(2-(4-((6-((5-fluoro-4-(4-fluoro-1-isopropyl-2-methyl-1H-benzo[d]imidazol-6-yl)pyrimidin-2-yl)amino)pyridin-3-yl)methyl)piperazin-1-yl)-2-oxoethoxy)ethyl)thio)-1-oxoisoindolin-2-yl)piperidine-2,6-dione] | 0.5 | 
CN(C)C(=O)c1cc2cnc(Nc3ccc(N4CCN(C(=O)COCCOCCOCCOCCSc5cccc6c5C(=O)N(C5CCC(=O)NC5=O)C6=O)CC4)cn3)nc2n1C1CCCC1 (centres unmarked) [SIAIS219114, 7-cyclopentyl-2-((5-(4-(14-((2-(2,6-dioxopiperidin-3-yl)-1,3-dioxoisoindolin-4-yl)thio)-3,6,9,12-tetraoxatetradecanoyl)piperazin-1-yl)pyridin-2-yl)amino)-N,N-dimethyl-7H-pyrrolo[2,3-d]pyrimidine-6-carboxamide] | 1 to 10 | 
CC(=O)c1c(C)c2cnc(Nc3ccc(N4CCN(C(=O)CS(=O)(=O)c5cccc6c5C(=O)N(C5CCC(=O)NC5=O)C6=O)CC4)cn3)nc2n(C2CCCC2)c1=O (centres unmarked) [SIAIS151056, 4-((2-(4-(6-((6-acetyl-8-cyclopentyl-5-methyl-7-oxo-7,8-dihydropyrido[2,3-d]pyrimidin-2-yl)amino)pyridin-3-yl)piperazin-1-yl)-2-oxoethyl)sulfonyl)-2-(2,6-dioxopiperidin-3-yl)isoindoline-1,3-dione] | 100 to 500 | 
Cc1nc2c(F)cc(-c3nc(Nc4ccc(CN5CCN(C(=O)CSc6cccc7c6CN(C6CCC(=O)NC6=O)C7=O)CC5)cn4)ncc3F)cc2n1C(C)C (centres unmarked) [SIAIS262164, 3-(4-((2-(4-((6-((5-fluoro-4-(4-fluoro-1-isopropyl-2-methyl-1H-benzo[d]imidazol-6-yl)pyrimidin-2-yl)amino)pyridin-3-yl)methyl)piperazin-1-yl)-2-oxoethyl)thio)-1-oxoisoindolin-2-yl)piperidine-2,6-dione] | 0.5 to 5 | 
CC(=O)c1c(C)c2cnc(Nc3ccc(N4CCN(C(=O)CCCSc5cccc6c5C(=O)N(C5CCC(=O)NC5=O)C6=O)CC4)cn3)nc2n(C2CCCC2)c1=O (centres unmarked) [SIAIS184087, 4-((4-(4-(6-((6-acetyl-8-cyclopentyl-5-methyl-7-oxo-7,8-dihydropyrido [2,3-d]pyrimidin-2-yl)amino)pyridin-3-yl)piperazin-1-yl)-4-oxobutyl)thio)-2-(2,6-dioxo Piperidin-3-yl)isoindoline-1,3-dione] | 1 to 10 | 
CN(C)C(=O)c1cc2cnc(Nc3ccc(N4CCN(C(=O)CCCCCCSc5cccc6c5CN(C5CCC(=O)NC5=O)C6=O)CC4)cn3)nc2n1C1CCCC1 (centres unmarked) [SIAIS219091, 7-cyclopentyl-2-((5-(4-(7-((2-(2,6-dioxopiperidin-3-yl)-1-oxoisoindolin-4-yl)thio)heptanoyl)piperazin-1-yl)pyridin-2-yl)amino)-N,N-dimethyl-7H-pyrrolo[2,3-d]pyrimidine-6-carboxamide] | < 1 | 
CC(=O)c1c(C)c2cnc(Nc3ccc(N4CCN(C(=O)CCCCSc5cccc6c5C(=O)N(C5CCC(=O)NC5=O)C6=O)CC4)cn3)nc2n(C2CCCC2)c1=O (centres unmarked) [SIAIS184088, 4-((5-(4-(6-((6-acetyl-8-cyclopentyl-5-methyl-7-oxo-7,8-dihydropyrido[2,3-d]pyrimidin-2-yl)amino)pyridin-3-yl)piperazin-1-yl)-5-oxopentyl)thio)-2-(2,6-dioxopiperidin-3-yl)isoindoline-1,3-dione] | 1 to 10 | 
CN(C)C(=O)c1cc2cnc(Nc3ccc(N4CCN(C(=O)COCCSc5cccc6c5CN(C5CCC(=O)NC5=O)C6=O)CC4)cn3)nc2n1C1CCCC1 (centres unmarked) [SIAIS219106, 7-cyclopentyl-2-((5-(4-(2-(2-((2-(2,6-dioxopiperidin-3-yl)-1-oxoisoindolin-4-yl)thio)ethoxy)acetyl)piperazin-1-yl)pyridin-2-yl)amino)-N,N-dimethyl-7H-pyrrolo[2,3-d]pyrimidine-6-carboxamide] |  | 0.04 to 0.2
CC(=O)c1c(C)c2cnc(Nc3ccc(N4CCN(C(=O)COCCOCCOCCOCCSc5cccc6c5C(=O)N(C5CCC(=O)NC5=O)C6=O)CC4)cn3)nc2n(C2CCCC2)c1=O (centres unmarked) [SIAIS219061, 4-((14-(4-(6-((6-acetyl-8-cyclopentyl-5-methyl-7-oxo-7,8-dihydropyrido[2,3-d]pyrimidin-2-yl)amino)pyridin-3-yl)piperazin-1-yl)-14-oxo-3,6,9,12-tetraoxatetradecyl)thio)-2-(2,6-dioxopiperidin-3-yl)isoindoline-1,3-dione] | 1 to 10 | 
